The values below come from patent US20100173923A1, “4 (PYRROLOPYRIDINYL)PYRIMIDINYL-2-AMINE DERIVATIVES” (priority 2006, published 2010).

The structures appear in SMILES notation.

The subject of the experiment is tumour cells (for example commercially available colon carcinoma cell lines). Description: Inhibition of the proliferation/vitality of tumour cells in vitro (Crystal Violet staining). Type of experiment: cell-based. To be noted: 48 hours incubation with test substance, serum-containing medium, Crystal Violet absorbance, value given as range. The procedure:
In the present experiment description, the inhibition of tumour cell proliferation/tumour cell vitality by active ingredients is described.
The cells are sown in a suitable cell density in microtitre plates (96-well format). On the next day, the test substances are added in the form of a concentration series. After two further days of cultivation in serum-containing medium, the cell density is determined photometrically by staining the cells with Crystal Violet.
For example commercially available colon carcinoma cell lines.
The cells are cultivated in medium. At intervals of 3-4 days, the cells are detached from the culture dishes with the aid of trypsin solution and sown in suitable dilution in fresh medium. The cells are cultivated at 37° Celsius and 10% CO2.
• A cell culture bottle is washed with 1×PBS • Addition of 3 ml of 1× trypsin solution. Incubation at 37° C. for 5 min in an incubator. • Termination by addition of 7 ml of medium • Centrifugation of the cells (for example for 5 minutes at 150×g (1200 rpm)) • Remove medium by tilting and resuspend cells in fresh medium • Cell counting, for example using Trypan Blue solution (1:2 dilution) in counting chamber • Dilute cell suspension to 25,000 cells/ml and plate out 100 μl/well (2500 cells/well) • Incubation of the microtitre plate at 37° C. in 10% CO2 overnight
• The test substances are dissolved, for example, in DMSO and subsequently employed in corresponding concentration (if desired in a dilution series) in the cell culture medium. The dilution steps can be adapted depending on the efficiency of the active ingredients and the desired spread of the concentrations. Cell culture medium is added to the test substances in corresponding concentrations. Within the dilution series, the final concentration of DMSO in the cell culture medium can be constant (for example at 0.5%). The addition of the test substances to the cells can take place one day after sowing of the cells. To this end, the medium is removed from the cells, and the test substance dilutions are added to the cells (in the desired concentrations in the cell culture medium). […]
• The medium is removed from the cells, and the cells are washed with PBS. […] An absorption measurement is carried out at corresponding wavelength, for example 550 nm, in a microtitre plate reader (for example TECAN Genios No F129004). […]
The absorbance value of the medium control (no cells and test substances used) is subtracted from all other absorbance values. The controls (cells without test substance) with the solvent DMSO are set equal to 100 percent, and all other absorbance values are set in relation thereto (for example in % of control):
IC50 values (50% inhibition) are determined with the aid of statistics programs, such as, for example, RS1.

Consider `c1ccc(Nc2nccc(-c3c[nH]c4ncccc34)n2)cc1` [Compound A1, 3-(2-phenylaminopyrimidin-4-yl)-1H-pyrrolo[2,3-b]pyridine], for which the IC50 (as a rule, the concentration that inhibits the measured activity by half) is 0.05 to 0.5 µM.
Take `COCCn1cc(-c2ccnc(Nc3ccccc3)n2)c2cccnc21` [Compound A2, 1-(2-methoxyethyl)-3-(2-phenylaminopyrimidin-4-yl)-1H-pyrrolo[2,3-b]pyridine]: the 50% inhibitory concentration (IC50) lay within 5 to 50 µM.
`CNc1nccc(-c2c[nH]c3ncccc23)n1` [Compound A3]: the IC50 was in the range of 0.5 to 5 µM.
In turn, `CNc1nccc(-c2cn(CCOC)c3ncccc23)n1` [Compound A4] showed an IC50 of 5 to 50 µM.
